Test results as given in patent US11730788B2, “Use of peptides as therapeutic agent for autoimmune diseases and bone diseases” (KINE SCIENCES CO., LTD., priority 2017, dated 2023).

Tests used:
[1] = test system: collagen-induced arthritis (CIA) mouse model; assay: Rheumatoid arthritis treatment effect in collagen-induced arthritis (CIA) mouse model; assay type: in vivo, DBA/1J mouse; settings: intraperitoneal, 3 times a week after second immunization; versus vehicle PBS; similar efficacy to positive control MTX
Protocol: In order to confirm a rheumatoid arthritis improvement effect of the peptides prepared in Example 1, a rheumatoid arthritis mouse model was prepared with reference to a known literature (Nat Protoc. 2007; 2 (5): 1269-75.).
Specifically, a CIA mouse model is a mouse model most commonly used in a rheumatoid arthritis animal test as an autoimmune disease arthritis model having characteristics similar to human rheumatoid arthritis. In the CIA mouse model, bovine type II collagen (Chondrex, USA) was mixed and emulsified with a Freund's complete adjuvant (Chondrex, USA) at 1:1, and then first immunization was performed by injecting 50 μl of the emulsified collagen solution intradermally into a 6-week-old DBA/1J mouse tail. On 2 weeks after the first immunization, bovine type II collagen was mixed and emulsified with a Freund's incomplete adjuvant (Chondrex, USA) at 1:1, and then second immunization (boosting) was performed by injecting 50 μl of the emulsified collagen solution induced) intradermally into the mouse tail. After the second immunization, each peptide was intraperitoneally administered 3 times a week from the following day to observe a therapeutic effect of the peptides for rheumatoid arthritis.
In order to examine the progression of rheumatoid arthritis according to the peptide treatment of the present invention, the severity of rheumatoid arthritis over time was evaluated and measured by a rheumatoid arthritis progress index.
At this time, the arthritis progress index was evaluated as Points 0 to 4 per leg in accordance with the arthritis progress evaluation criteria by Rossoliniec, etc. in Table 2 below and shown to total Points 0 to 16 (sum of four legs). Thereafter, an average value of the results evaluated by the two observers was calculated to quantify the severity of arthritis.

IL-6 = assay: Inflammatory cytokine IL-6 reduction effect (IL-6 ELISA, THP-1 derived M1 macrophages); assay type: cell-based; settings: LPS 10 ng/ml + IFN-gamma 20 ng/ml, peptide 100 ng/ml, 24 hours, similar to positive control MTX
Protocol: In order to confirm the efficacy of the synthetic peptides prepared in Example 1 to inhibit inflammatory cytokine IL-6 secretion, a THP-1 monocytic cell line was treated with PMA 50 ng/ml for 48 hours to be differentiated into M1 macrophages. After treatment with LPS 10 ng/ml and IFN-gamma 20 ng/ml to the differentiated M1 macrophages, a positive control group MTX or the synthetic peptides of the present invention were co-treated at a concentration of 100 ng/ml, respectively. Thereafter, after incubation for 24 hours, IL-6 ELISA was performed using a cultured sup.

[2] = test system: Th17 cell differentiation of naive CD4+ T cells; assay: Th17 cell differentiation inhibitory effect (CD4+IL-17+ T cell population); assay type: cell-based, mouse; settings: IL-6 20 ng/ml + TGF-beta 5 ng/ml + TCR activation; peptide 10 ng/ml to 1000 ng/ml, 3 days; non-induced 1.2%, induced 3.14%
Protocol: In order to confirm the efficacy of the synthetic peptides prepared in Example 1 to inhibit Th17 cell differentiation, naive CD4^+ T cells extracted from lymph nodes of the mouse were treated with IL-6 20 ng/ml and TGF-beta 5 ng/ml together with TCR activation to induce differentiation into Th17 cells.
At the same time, three peptides Pep1, Pep6, and Pep8 disclosed in Table 2 of Test Example 1 were treated at a concentration of 10 ng/ml to 1000 ng/ml, respectively. Then, after incubation for 3 days, CD4+IL-17+ T cell population was analyzed.

Substance: KEAKEAKEA [Pep7]
- arthritis improvement (arthritis score, total Points 0 to 16) [1]: efficacy of arthritis improvement was shown
- IL-6 secretion (ELISA of culture sup) (IL-6): significantly reduced

Substance: KDAKDA [Pep4]
- arthritis improvement (arthritis score, total Points 0 to 16) [1]: efficacy of arthritis improvement was shown

Substance: KEAKEA [Pep3]
- IL-6 secretion (ELISA of culture sup) (IL-6): significantly reduced

Substance: KDAKDAKDA [Pep8]
- ratio of Th17 cells (CD4+IL-17+ T cell population) [2]: reduced similarly to the group that did not induce differentiation
- arthritis improvement (arthritis score, total Points 0 to 16) [1]: efficacy of arthritis improvement was shown
- IL-6 secretion (ELISA of culture sup) (IL-6): significantly reduced

Substance: KEGKEG [Pep2]
- IL-6 secretion (ELISA of culture sup) (IL-6): significantly reduced

Substance: KDGKDGKDG [Pep5]
- IL-6 secretion (ELISA of culture sup) (IL-6): significantly reduced

Substance: KDGKDG [Pep1]
- ratio of Th17 cells (CD4+IL-17+ T cell population) [2]: reduced similarly to the group that did not induce differentiation
- arthritis improvement (arthritis score, total Points 0 to 16) [1]: efficacy of arthritis improvement was shown

Substance: KEGKEGKEG [Pep6]
- ratio of Th17 cells (CD4+IL-17+ T cell population) [2]: reduced similarly to the group that did not induce differentiation
- arthritis improvement (arthritis score, total Points 0 to 16) [1]: efficacy of arthritis improvement was shown
